Data from US9849154B2, “Synergistic combination of alanine-glutamine, hyaluronic acid and oat extract and the use thereof in a composition intended for healing wounds and repairing skin lesions” (PIERRE FABRE DERMO-COSMETIQUE, priority 2013, dated 2017).
Residues, ends and D or L forms follow the SMILES beside them.

Test system: HaCaT human keratinocyte line
Experiment: Oris Cell Migration Assay: migration of keratinocytes
Format: cell-based
Conditions: DMEM 0% FCS; for % Migration (control 0% FCS = 100) / Average ± SD (fluorescence intensity, FI): 24 h
Excerpt: The objective of this test was to evaluate the effect of hyaluronic acid, oat seedling extract, L-alanyl-L-glutamine and combinations thereof on the migration of keratinocytes using the Oris Cell Migration Assay kit (Platypus Technologies).
The spontaneously immortalised HaCaT human keratinocyte line, frequently cited as reference model in the literature was used.
The protocol used for the study of cell migration is based on the use of a 96 well kit, the Oris Cell Migration Assay (Platypus technologies—TEBU), enabling the miniaturisation and the quantification of this cellular process.
The principle of this test consists in studying cell migration towards the centre of the wells of the 96 well plate. It consists in placing a stopper in the wells, in order to create a 2 mm diameter detection zone. Then removing the stoppers once cells have properly adhered to the surface around them, and thus to enable cells to migrate towards the detection zone. The plates without stoppers and with the active ingredients are incubated at 37° C. for 24 hours in DMEM (Dulbecco's Modified Eagle Medium) 0% FCS (foetal calf serum). The quantity of cells situated in the zone where the stopper was is analysed in order to evaluate the migration of the cells. A mask makes it possible to visualise and to count uniquely the cells situated in this zone. For each condition, the average is determined on 6 to 8 wells.
The cells were incubated in FCS-free medium.
• EGF: 33 ng/ml, • oat seedling extract: 10 or 30 μg/ml,
Filtering. Concentration by drying until a dry extract is obtained. • sodium hyaluronate (molecular weight 250-450 kDa): 20 or 60 μg/ml, • L-alanyl-L-glutamine: 40 or 90 μg/ml. Analysis of the Results
The Results are Expressed: • In fluorescence intensity (FI), proportional to the quantity of cells having migrated. • In percentage activity compared to the control 0% FCS.
[formula] Statistical Analyses
Statistical analyses by the Dunnett test were carried out on the crude migration values. This test then gives “p value” values characterising the significance of the results obtained for different conditions. The degree of significance was fixed at
The results at different concentrations of the effect of oat seedling extract, hyaluronic acid and L-alanyl-L-glutamine, alone or in combination on the migration of keratinocytes are indexed in tables 1 and 2 then represented in the single FIGURE. The fluorescence intensity values represented on this curve correspond to an average of 6 to 8 measurements carried out during an experiment representative of 3 independent manipulations.

Molecule | effect on the migration of keratinocytes (in words) (L-alanyl-L-glutamine alone, 40 or 90 μg/ml) | % Migration (control 0% FCS = 100) (Table 1, 40 μg/ml) | Average ± SD (fluorescence intensity, FI) (Table 1, 40 μg/ml) | % Migration (control 0% FCS = 100) (Table 2, 90 μg/ml) | Average ± SD (fluorescence intensity, FI) (Table 2, 90 μg/ml) | % Migration (control 0% FCS = 100) (Table 1, EGF 33 ng/ml) | Average ± SD (fluorescence intensity, FI) (Table 1, EGF 33 ng/ml) | Average ± SD (fluorescence intensity, FI) (Table 2, EGF 33 ng/ml) | % Migration (control 0% FCS = 100) (Table 2, EGF 33 ng/ml, * p < 0.05 versus control) | effect on the migration of keratinocytes (in words) (positive control, EGF 33 ng/ml)
C[C@H](N)C(=O)N[C@@H](CCC(N)=O)C(=O)O [ALANYL GLUTAMINE, L-alanyl-L-glutamine] (H-Ala-Gln-OH) | induces the migration of keratinocytes in a concentration-dependent manner | 200% | 2471 ± 788 | 194% | 2586 ± 1092 |  |  |  |  | 
EGF: EGF, positive control of the migration experiments, 33 ng/ml |  |  |  |  |  | 216% | 2569± | 3553 ± 1556 | 301 * % | induces the migration of keratinocytes
